Laboratory results: ChEMBL document CHEMBL3885881, “DrugMatrix”
“And” between values parts separate entries of the source, which are not always exact repeats. Identical values can stand only once.

Species on record: Rattus norvegicus
Experiment: DrugMatrix - Regimen: Daily Repeat
Type: toxicity, organism-based, Sprague-Dawley
Set-up: regimen Daily Repeat, gender Male, age 6-8 weeks
Details: in vivo, po, route oral GAVAGE, vehicle .5 % CMC; for ABSOLUTE BASOPHIL / ABSOLUTE EOSINOPHIL / ABSOLUTE LYMPHOCYTE / ABSOLUTE MONOCYTE / BASOPHIL / EOSINOPHIL / ERYTHROCYTE COUNT / HEMATOCRIT / HEMOGLOBIN / LEUKOCYTE COUNT / LYMPHOCYTE / MEAN CORPUSCULAR HEMOGLOBIN / MEAN CORPUSCULAR HEMOGLOBIN CONCENTRATION / MEAN CORPUSCULAR VOLUME / MONOCYTE / NEUTROPHIL / PLATELET COUNT / ABSOLUTE SEGMENTED NEUTROPHIL / NUCLEATED RED BLOOD CELLS: tissue Blood; for ALANINE AMINOTRANSFERASE / ALBUMIN / ALKALINE PHOSPHATASE / ASPARTATE AMINOTRANSFERASE / BLOOD UREA NITROGEN / CARBON DIOXIDE / CHLORIDE / CHOLESTEROL / CREATINE PHOSPHOKINASE / CREATININE / GLUCOSE / LACTATE DEHYDROGENASE / LIPASE / PHOSPHORUS / POTASSIUM / SODIUM / TOTAL BILIRUBIN / TOTAL PROTEIN / URIC ACID: tissue Plasma
[1] = 10 mg/kg, […], dose level Low, time 14 day
[2] = 100 mg/kg, 72 h, dose level High, time 3 day
[3] = 100 mg/kg, 120 h, dose level High, time 5 day
[4] = 100 mg/kg, […], dose level High, time 14 day

CN(C)CCN(Cc1cccs1)c1ccccn1
ABSOLUTE BASOPHIL [1]: 83.3 cells/µL
ABSOLUTE EOSINOPHIL [1]: 66.7 cells/µL
ABSOLUTE LYMPHOCYTE [1]: 10000 cells/µL
ABSOLUTE MONOCYTE [1]: 240 cells/µL
BASOPHIL [1]: 0.53%
EOSINOPHIL [1]: 0.52%
ERYTHROCYTE COUNT [1]: 7.47 x10E6/uL
HEMATOCRIT [1]: 47.12%
HEMOGLOBIN [1]: 14.82 G/DL
LEUKOCYTE COUNT [1]: 12.98 x10E3/uL
LYMPHOCYTE [1]: 76.93%
MEAN CORPUSCULAR HEMOGLOBIN [1]: 19.85 pg
MEAN CORPUSCULAR HEMOGLOBIN CONCENTRATION [1]: 31.43 G/DL
MEAN CORPUSCULAR VOLUME [1]: 63.1 fL
MONOCYTE [1]: 1.83%
NEUTROPHIL [1]: 19.2%
PLATELET COUNT [1]: 1264.5 x10E3/uL
ALANINE AMINOTRANSFERASE [1]: 47.67 u/L
ALBUMIN [1]: 3.87 G/DL
ALKALINE PHOSPHATASE [1]: 477 u/L
ASPARTATE AMINOTRANSFERASE [1]: 81.33 u/L
BLOOD UREA NITROGEN [1]: 14.83 mg/dL
CARBON DIOXIDE [1]: 38.33 mmol/L
CHLORIDE [1]: 105.17 MEQ/L
CHOLESTEROL [1]: 68.67 mg/dL
CREATINE PHOSPHOKINASE [1]: 223.17 u/L
CREATININE [1]: 0.68 mg/dL
GLUCOSE [1]: 155.83 mg/dL
LACTATE DEHYDROGENASE [1]: 95.83 u/L
LIPASE [1]: 18.67 u/L
PHOSPHORUS [1]: 10.72 mg/dL
POTASSIUM [1]: 6.3 MEQ/L
SODIUM [1]: 151.83 MEQ/L
TOTAL BILIRUBIN [1]: 0.27 mg/dL
TOTAL PROTEIN [1]: 6.77 G/DL
URIC ACID [1]: 1.22 mg/dL
ABSOLUTE BASOPHIL [2]: 0 CELLS/uL
ABSOLUTE EOSINOPHIL [2]: 62.67 CELLS/uL
ABSOLUTE LYMPHOCYTE [2]: 11170 CELLS/uL
ABSOLUTE MONOCYTE [2]: 125.33 CELLS/uL
ABSOLUTE SEGMENTED NEUTROPHIL [2]: 1608.67 CELLS/uL
BASOPHIL [2]: 0%
EOSINOPHIL [2]: 0.33%
ERYTHROCYTE COUNT [2]: 5.22 x10E6/uL
HEMATOCRIT [2]: 32.67%
HEMOGLOBIN [2]: 12.17 G/DL
LEUKOCYTE COUNT [2]: 12.97 x10E3/uL
LYMPHOCYTE [2]: 81.67%
MEAN CORPUSCULAR HEMOGLOBIN [2]: 23.37 pg
MEAN CORPUSCULAR HEMOGLOBIN CONCENTRATION [2]: 37.27 G/DL
MEAN CORPUSCULAR VOLUME [2]: 62.6 fL
MONOCYTE [2]: 0.67%
NEUTROPHIL [2]: 17.33%
NUCLEATED RED BLOOD CELLS [2]: 0 /100WBC
PLATELET COUNT [2]: 1093.67 x10E3/uL
ALANINE AMINOTRANSFERASE [2]: 71.33 u/L
ALBUMIN [2]: 3.77 G/DL
ALKALINE PHOSPHATASE [2]: 555.67 u/L
ASPARTATE AMINOTRANSFERASE [2]: 110.67 u/L
BLOOD UREA NITROGEN [2]: 15.67 mg/dL
CARBON DIOXIDE [2]: 32.33 mmol/L
CHLORIDE [2]: 99.67 MEQ/L
CHOLESTEROL [2]: 134.33 mg/dL
CREATINE PHOSPHOKINASE [2]: 382 u/L
CREATININE [2]: 0.22 mg/dL
GLUCOSE [2]: 140 mg/dL
LACTATE DEHYDROGENASE [2]: 129.67 u/L
LIPASE [2]: 11.33 u/L
PHOSPHORUS [2]: 12.07 mg/dL
POTASSIUM [2]: 5.88 MEQ/L
SODIUM [2]: 143.37 MEQ/L
TOTAL BILIRUBIN [2]: 0.47 mg/dL
TOTAL PROTEIN [2]: 5.77 G/DL
URIC ACID [2]: 0.43 mg/dL
ABSOLUTE SEGMENTED NEUTROPHIL [3]: 1008.67 CELLS/uL
BASOPHIL [3]: 0.97% and 0%
EOSINOPHIL [3]: 0.55% and 0%
ERYTHROCYTE COUNT [3]: 7.33 x10E6/uL and 5.52 x10E6/uL
HEMATOCRIT [3]: 45.42% and 34.13%
HEMOGLOBIN [3]: 14.18 G/DL and 13.07 G/DL
LEUKOCYTE COUNT [3]: 20.78 x10E3/uL and 14.4 x10E3/uL
LYMPHOCYTE [3]: 80.47% and 90%
MEAN CORPUSCULAR HEMOGLOBIN [3]: 19.32 pg and 23.73 pg
MEAN CORPUSCULAR HEMOGLOBIN CONCENTRATION [3]: 31.2 G/DL and 38.33 G/DL
MEAN CORPUSCULAR VOLUME [3]: 61.95 fL and 61.97 fL
MONOCYTE [3]: 3.85% and 3%
NEUTROPHIL [3]: 12.68% and 7%
NUCLEATED RED BLOOD CELLS [3]: 0 /100WBC
PLATELET COUNT [3]: 1277.75 x10E3/uL and 1530.33 x10E3/uL
ALANINE AMINOTRANSFERASE [3]: 138.25 u/L and 130.33 u/L
ALBUMIN [3]: 3.45 G/DL and 4.23 G/DL
ALKALINE PHOSPHATASE [3]: 618 u/L and 531.33 u/L
ASPARTATE AMINOTRANSFERASE [3]: 321 u/L and 308.67 u/L
BLOOD UREA NITROGEN [3]: 15.75 mg/dL and 15.33 mg/dL
CARBON DIOXIDE [3]: 37 mmol/L and 36.67 mmol/L
CHLORIDE [3]: 104.75 MEQ/L and 97.67 MEQ/L
CHOLESTEROL [3]: 98.5 mg/dL and 113.67 mg/dL
CREATINE PHOSPHOKINASE [3]: 398.5 u/L and 603.33 u/L
CREATININE [3]: 0.5 mg/dL and 0.25 mg/dL
GLUCOSE [3]: 151.25 mg/dL and 120.33 mg/dL
LACTATE DEHYDROGENASE [3]: 162.5 u/L and 250.33 u/L
LIPASE [3]: 17 u/L and 9.67 u/L
PHOSPHORUS [3]: 11.03 mg/dL and 12.1 mg/dL
POTASSIUM [3]: 6.62 MEQ/L and 5.82 MEQ/L
SODIUM [3]: 151 MEQ/L and 142.77 MEQ/L
TOTAL BILIRUBIN [3]: 0.4 mg/dL and 0.37 mg/dL
TOTAL PROTEIN [3]: 5.72 G/DL and 6.2 G/DL
URIC ACID [3]: 1.07 mg/dL and 0.63 mg/dL
ABSOLUTE BASOPHIL [4]: 150 cells/µL
ABSOLUTE EOSINOPHIL [4]: 75 cells/µL
ABSOLUTE LYMPHOCYTE [4]: 12900 cells/µL
ABSOLUTE MONOCYTE [4]: 390 cells/µL
BASOPHIL [4]: 0.77%
EOSINOPHIL [4]: 0.5%
ERYTHROCYTE COUNT [4]: 8.39 x10E6/uL
HEMATOCRIT [4]: 49.5%
HEMOGLOBIN [4]: 15.85 G/DL
LEUKOCYTE COUNT [4]: 15.58 x10E3/uL
LYMPHOCYTE [4]: 82.28%
MEAN CORPUSCULAR HEMOGLOBIN [4]: 18.95 pg
MEAN CORPUSCULAR HEMOGLOBIN CONCENTRATION [4]: 32.1 G/DL
MEAN CORPUSCULAR VOLUME [4]: 59.02 fL
MONOCYTE [4]: 2.45%
NEUTROPHIL [4]: 12.85%
PLATELET COUNT [4]: 1440.5 x10E3/uL
ALANINE AMINOTRANSFERASE [4]: 70.83 u/L
ALBUMIN [4]: 3.47 G/DL
ALKALINE PHOSPHATASE [4]: 569.83 u/L
ASPARTATE AMINOTRANSFERASE [4]: 277.5 u/L
BLOOD UREA NITROGEN [4]: 17.17 mg/dL
CARBON DIOXIDE [4]: 33.83 mmol/L
CHLORIDE [4]: 106.33 MEQ/L
CHOLESTEROL [4]: 60.17 mg/dL
CREATINE PHOSPHOKINASE [4]: 264.5 u/L
CREATININE [4]: 0.7 mg/dL
GLUCOSE [4]: 134.5 mg/dL
LACTATE DEHYDROGENASE [4]: 165.67 u/L
LIPASE [4]: 22.2 u/L
PHOSPHORUS [4]: 11.25 mg/dL
POTASSIUM [4]: 6.93 MEQ/L
SODIUM [4]: 150.83 MEQ/L
TOTAL BILIRUBIN [4]: 0.65 mg/dL
TOTAL PROTEIN [4]: 5.93 G/DL
URIC ACID [4]: 1.82 mg/dL
